Results from US20120122727A1, “IN VITRO METHOD FOR PREDICTING WHETHER A COMPOUND IS GENOTOXIC IN VIVO” (priority 2009, published 2012).

Tested on: primary mouse hepatocytes
Experiment: Gene expression in primary mouse hepatocytes, GTX vs non-GTX (four-gene classifier, 24 h)
Procedure: Hepatocyte cells were incubated and exposed to a compound for 24 h before being harvested for RNA isolation.
The results of the gene expression analysis may then be fed into a statistical software package such as R, Splus, or Microsoft Excel. […] If none or only one of these criteria were met, no point was scored.
For each of the four genes mentioned in the table (1700007K13RIK, GAS2L3, SPC25, DDIT4L), a statistical comparison was made between the normalized expression data for these genes. […] If none or only one of these criteria were met, no point was scored.
For each compound, the sum of the scores for four genes is taken. If this score is 0, a compound can be believed not to be genotoxic. If this score is 1, 2, 3 or 4, a compound is genotoxic.
If none or only one of these criteria were met, no point was scored.

[1] = 24 h exposure, average of four replicates
[2] = log 2 ratio, 24 h exposure, concentration per Table 4

## CCC[CH2][Sn]([CH2]CCC)([CH2]CCC)[O][Sn]([CH2]CCC)([CH2]CCC)[CH2]CCC [TBTO, Bis(tri-n-butyltin)oxide]
[1]
  score 1700007K13RIK: 0
  score DDIT4L: 0
  score GAS2L3: 0
  score SPC25: 0
[2]
  Ratios of gene expression treated/untreated 1700007K13RIK: 0.09131
  Ratios of gene expression treated/untreated DDIT4L: 0.319
  Ratios of gene expression treated/untreated GAS2L3: −0.0161
  Ratios of gene expression treated/untreated SPC25: 0.2186
Sum of scores for four genes, 0 = not genotoxic, 1, 2, 3 or 4 = genotoxic
  Total score: 0
